Experimental data published in US5912245A, “Acid amide derivatives and process for the preparation thereof” (Egis Gyogyszergyar RT., priority 1994, dated 1999).
Entries after “also recorded” stand apart in the source; their conditions may differ.

Tests used:
AMPA recognition site = test: ^3H-AMPA binding (radioligand competitive binding assay); parameters: species or system rat; conditions: compared with DNQX
Method: (§1) 1. ^3 H-AMPA and ^3 H-kainate binding (radioligand competitive binding assay)
(§2) The experiment was carried out according to the method of Murphy et al. [D. E. Murphy, E. W. Snowhill, M. Williams: Neurochem. Res. 12, 775-782 (1987)] using a membrane specimen isolated from rat brain. The binding of kainate labeled with tritium on a rat cortex specimen was measured according to the method of Honore et al. [T. Honore, J. Dejer and M. Nielsen: Neurosci. Lett. 65, 48-52 (1986)].

kainate recognition site = test: ^3H-kainate binding (radioligand competitive binding assay); parameters: species or system rat; conditions: compared with DNQX
Method: as §1, §2

[1] = molecular target: NMDA (CGS 19755 receptor); test: Selectivity: CGS 19755 receptor binding test
Method: The experiment was carried out according to the method of Foster et al. [A. Foster and E. H. F. Wong: Brit.

AMPA and kainate = AMPA and kainate antagonism (overall conclusion from the binding and selectivity tests)
Method: as §2
The experiment was carried out according to the method of Foster et al. [A. Foster and E. H. F. Wong: Brit. J. Pharmacol. 91, 403-409, (1987)]. When applying the CGS 19755 receptor binding test the method of Murphy et al. [D. E. Murphy, A. J. Hutchison, S. D. Hurt, M. Williams and M. A. Sills: Brit. J. Pharmacol. 95, 932-938 (1988)] was applied.

AMPA = conditions: cited from earlier work

Structure (SMILES)	displacement of labeled AMPA, in words (AMPA recognition site)	displacement of labeled kainate, in words (kainate recognition site)	Binding of ^3H-CGS-19755 Ki [1]	AMPA and kainate antagonism, in words (AMPA and kainate)	AMPA antagonizing property, in words (AMPA)
O=c1[nH]c2cc([N+](=O)[O-])c(S(=O)(=O)NCCN3CCCCC3)cc2[nH]c1=O [Example 17, 1,2,3,4-Tetrahydro-7-nitro-2,3-dioxo-N-(2-piperidinoethyl)-6-quinoxaline sulfonamide]	affinity similar to that of DNQX; also recorded: good reversible ligand	affinity similar to that of DNQX; also recorded: good reversible ligand	not "converge"	selective AMPA and kainate antagonists	
N#Cc1cc2[nH]c(=O)c(=O)[nH]c2cc1[N+](=O)[O-] [CNQX, 6-cyano-7-nitro-quinoxaline-2,3-dione]					selective AMPA antagonizing property
O=c1[nH]c2cc([N+](=O)[O-])c(S(=O)(=O)N(CCO)CCO)cc2[nH]c1=O [Example 24, N,N-bis(2-Hydroxyethyl)-1,2,3,4-tetrahydro-7-nitro-2,3-dioxo-6-quinoxaline sulfonamide]			does not "converge"	selective AMPA and kainate antagonists	
O=c1[nH]c2cc([N+](=O)[O-])c([N+](=O)[O-])cc2[nH]c1=O [DNQX, 6,7-dinitroquinoxaline-2,3-dione, reference compound]			does not "converge"		selective AMPA antagonizing property
